Laboratory results: US9545410B2, “Tyrosine kinase inhibitors as anti-kinetoplastid agents” (UNIVERSITY OF GEORGIA RESEARCH FOUNDATION, INC., priority 2006, dated 2017)
Read-outs that look alike come from different tables or passages of the source.

What was measured:
[1] = cited from earlier work
[2] = tested on: blood stream T. brucei strain 427; experiment: Cultured bloodstream T. brucei growth/viability, parasites counted with a haemocytometer; assay type: cell-based, Trypanosoma brucei; settings: for concentration at which all parasites were killed / no parasites survived: blood stream T. brucei strain 427, 37° C. for 40 hours
Procedure: Cultured trypanosomes (seeded at 10^4/ml) in 100 μl of a 96-well plate received varying amounts of Tyrphostin A47 (Sigma). Parasites were counted with a haemocytometer after 48 hours in culture. Data are means of triplicate determinations, they are representative of three independent trials. Blood stream form of T. brucei were used for these studies since that stage of the parasite causes disease in humans. Inhibitory concentration 50 (IC50) is the drug concentration which reduces the growth rate by 50%. Minimum inhibitory concentration (MIC) is the lowest concentration which killed all the parasites.
T. brucei strain 427 was cultured axenically and seeded at 10^4 cells/ml in 200 μl of medium a 96-well plate. Tyrphostin AG1478 (Sigma) (Zhu et al., 2001, Cancer Lett; 169:27-32; Shushan et al., 2004, Hum Reprod; 19:1957-1967) was added to the stated final concentrations, cells were incubated at 37° C. for 40 hours, and parasites were counted with a haemocytometer. Data are mean values representative of two independent trials each of which was performed in triplicate. T. brucei replicates every 8-10 hours.
The 4-anilinoquinazoline canertinib (also referred to as C1-1033) is an inhibitor of EGFR kinase (Dewji, 2004, J Chemotherapy; 16(Suppl 4):44-48; Hamid, 2004, J Am Pharm Assoc; 44:52-58). To test the trypanocidal activity of canertinib, culture of blood stream T. brucei strain 427 was initiated in 24-well plates at 10^4 cells/ml (in 500 μl of medium (Hirumi and Hirumi, 1991, Parasitology; 102(Pt 2):225-236)). Canertinib (Heymach et al., 2006, Clin Cancer Res; 12:4441s) (provided by Pfizer) was added to the stated final concentrations, and cells were incubated at 37° C. for 40 hours. Control cells received an equal volume of solvent (DMSO). Parasites were counted with a haemocytometer. Data plotted are mean values of quadruplicate determinations from one of three independent trials that produced similar results.
This example also determined that erlotinib (TARCEVA), a 4-anilinoquinazoline tyrosine kinase inhibitor is trypanocidal. erlotinib (TARCEVA), like canertinib, is an inhibitor of EGFR kinase (Bulgaru et al., 2003, Expert Rev Anticancer Ther; 3(3):269-79; Akita and Sliwkowski, 2003, Semin Oncol; 30(3 Suppl 7):15-24). The culture of blood stream T. brucei strain 427 was initiated in 24-well plates at 10^4 cells/ml in 500 μl of medium (Hirumi and Hirumi, 1991, Parasitology; 102 Pt 2:225-236). Erlotinib (TARCEVA) (provided by Genentech/OSI), was added to the stated final concentrations shown in FIG. 4, and cells were incubated at 37° C. for 40 hours.
This example presents data showing sunitinib and axitinib (both provided by Pfizer) are trypanocidal. Sunitinib (also known as SU11248 and marketed under the trade name SUTENT) inhibits VEGFR, PDGF, and c-Kit kinases (reviewed in Steeghs et al., 2007, Ann Surg Oncol; 14(2):942-53) and is approved by the Food and Drug Administration for treatment of renal cell carcinoma. […] Therefore, this example tests whether sunitinib (SUTENT) compromised T. brucei viability. To blood stream form T. brucei 427 (seeded at 10^4 cells/ml in 500 μl of medium) sunitinib (SUTENT) (Abrams et al., 2003, Mol Cancer Ther; 2:471-478; Mendel et al., 2003, Clin Cancer Res; 9:327-337) was added to the stated final concentrations and cells were incubated at 37° C. for 40 hours. Parasites were counted with a haemocytometer. Data plotted are mean values of quadruplicate determinations from a representative experiment.

[3] = Trypanosoma brucei, blood stream T. brucei strain 427 seeded at 10^4 cells/ml, 37° C. for 40 hours, read-out: IC50

C#Cc1cccc(Nc2ncnc3cc(OCCOC)c(OCCOC)cc23)c1 [erlotinib, N-(3-ethynylphenyl)-6,7-bis(2-methoxyethoxy)quinazolin-4-amine]
plasma concentration ([1]; human patients receiving a cycle of 150 mg/day): 60 µM | plasma concentration ([1]; single dose): 2 µM | IC50 [2, 3]: ~1700 nM | concentration at which all parasites were killed / no parasites survived [2]: 10 µM

C=CC(=O)Nc1cc2c(Nc3ccc(F)c(Cl)c3)ncnc2cc1OCCCN1CCOCC1 [canertinib, N-[−4-[(3-chloro-4-fluorophenyl)amino]-7-[3-(4-morpholinyl)propoxy]-6-quinazolinyl]-2-propenamide]
IC50 [2, 3]: 1000 nM | concentration at which all parasites were killed / no parasites survived [2]: Above 4 μM

N#C/C(=C\c1ccc(O)c(O)c1)C(N)=S [Tyrphostin A47]
IC50 ([2]; blood stream form T. brucei seeded at 10^4/ml, 96-well plate, counted after 48 hours, read-out: IC50 (drug concentration which reduces the growth rate by 50%)): 1000 to 5000 nM

COc1cc2ncnc(Nc3cccc(Cl)c3)c2cc1OC [Tyrphostin AG1478]
IC50 ([2]; blood stream T. brucei strain 427 seeded at 10^4 cells/ml, 37° C. for 40 hours, read-out: IC50): 2500 to 5000 nM

CCN(CC)CCNC(=O)c1c(C)[nH]c(/C=C2\C(=O)Nc3ccc(F)cc32)c1C [SUTENT, N-[2-(diethylamino)ethyl]-5-[(Z)-(5-fluoro-1,2-dihydro-2-oxo-3H-indol-3-ylidine)methyl]-2,4-dimethyl-1H-pyrrole-3-carboxamide]
trypanocidal effect on T. brucei (in words) ([2]; blood stream form T. brucei 427, 37° C. for 40 hours): kills T. brucei at low micromolar levels
